Reference: the supplement of paper PMC8671470

Columns and labels:
Conditions in all cases: 72 h
BV-173 [1] = tested on: BV-173
Summary of the method: (§1)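 The IC50 was read from log-logistic dose–response fits. Fifteen myeloid leukaemia lines were exposed for 72 h at 37 °C with 5% CO2 to five tenfold doses from 1 to 10,000 nM in duplicate. ATP luminescence, normalised to vehicle and to a 10 µM positive control, was fitted with four parameters.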

HEL [2] = tested on: HEL
Summary of the method: as §1

HL-60 [3] = tested on: HL-60
Summary of the method: as §1

K-562 [4] = tested on: K-562
Summary of the method: as §1

KCL-22 [5] = tested on: KCL-22
Summary of the method: as §1

KG-1 [6] = tested on: KG-1
Summary of the method: as §1

KU-812 [7] = tested on: KU-812
Summary of the method: as §1

LAMA-84 [8] = tested on: LAMA-84
Summary of the method: as §1

ML-2 [9] = tested on: ML-2
Summary of the method: as §1

MOLM-13 [10] = tested on: MOLM-13
Summary of the method: as §1

MV4-11 [11] = tested on: MV4-11
Summary of the method: as §1

Mono-Mac-6 [12] = tested on: Mono-Mac-6
Summary of the method: as §1

NOMO-1 [13] = tested on: NOMO-1
Summary of the method: as §1

SHI-1 [14] = tested on: SHI-1
Summary of the method: as §1

THP-1 [15] = tested on: THP-1
Summary of the method: as §1

BV-173 [16] = experiment: cell viability (% survival relative to DMSO control, bortezomib = 0%); higher = less cytotoxic
Summary of the method: (§2)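 Percent survival figures are means of duplicate wells. They were obtained by CellTiter-Glo luminescence after 10 AML and 5 CML cell lines spent 72 h at 37 °C with 5% CO2 in 384-well plates with compounds at 1, 10, 100, 1000 or 10000 nM. Vehicle was set to 100% and a 10 µM positive control to 0%.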

HEL [17] = experiment: as above
Summary of the method: as §2

HL-60 [18] = experiment: as above
Summary of the method: as §2

K-562 [19] = experiment: as above
Summary of the method: as §2

KCL-22 [20] = experiment: as above
Summary of the method: as §2

KG-1 [21] = experiment: as above
Summary of the method: as §2

KU-812 [22] = experiment: as above
Summary of the method: as §2

LAMA-84 [23] = experiment: as above
Summary of the method: as §2

ML-2 [24] = experiment: as above
Summary of the method: as §2

MOLM-13 [25] = experiment: as above
Summary of the method: as §2

MV4-11 [26] = experiment: as above
Summary of the method: as §2

Mono-Mac-6 [27] = experiment: as above
Summary of the method: as §2

NOMO-1 [28] = experiment: as above
Summary of the method: as §2

SHI-1 [29] = experiment: as above
Summary of the method: as §2

THP-1 [30] = experiment: as above
Summary of the method: as §2

CO[C@H]1C[C@@H]2CC[C@@H](C)[C@@](O)(O2)C(=O)C(=O)N2CCCC[C@H]2C(=O)O[C@H]([C@H](C)C[C@@H]2CC[C@@H](OCCO)[C@H](OC)C2)CC(=O)[C@H](C)/C=C(\C)[C@@H](O)[C@@H](OC)C(=O)[C@H](C)C[C@H](C)/C=C/C=C/C=C/1C [Everolimus]
Conditions	IC50 (cell viability) [nM]
BV-173 [1]	4.11
HEL [2]	2.74
HL-60 [3]	3920
K-562 [4]	3.42
KCL-22 [5]	1.21
KG-1 [6]	< 1
KU-812 [7]	< 1
LAMA-84 [8]	782
ML-2 [9]	1530
MOLM-13 [10]	< 1
MV4-11 [11]	248
Mono-Mac-6 [12]	1.04
NOMO-1 [13]	22.5
SHI-1 [14]	1.15
THP-1 [15]	1.65

cell viability [%]
Conditions	1 nM	10 nM	100 nM	1000 nM	10000 nM
BV-173 [16]	79.3	51.9	56	43.6	34.3
HEL [17]	94.9	65.6	67	62.3	58.5
HL-60 [18]	91.4	75.6	86.3	54.9	43
K-562 [19]	71	50.4	48.8	44.5	30.6
KCL-22 [20]	66	44.6	36.2	33.8	24.6
KG-1 [21]	54.3	45.1	41	37.3	30.5
KU-812 [22]	58.5	44.9	44.8	39.4	36
LAMA-84 [23]	72.2	52.8	62.8	53.7	37.9
ML-2 [24]	88.7	77.3	66.6	58.6	33.8
MOLM-13 [25]	49	38.1	48.3	29.7	34.6
MV4-11 [26]	62.1	64.6	61.8	53.6	22.6
Mono-Mac-6 [27]	74.2	46.4	53.1	40.7	44.2
NOMO-1 [28]	79.7	63.9	72.7	60.4	56.8
SHI-1 [29]	81.8	60.4	65.8	56.7	55.7
THP-1 [30]	83.8	67.5	66.9	59.8	58.9
